From PubChem BioAssay AID1259411 (Chemical Carcinogenesis Research Information System (CCRIS), 2018)
The source made the active and inactive calls. The rule behind the calls is not given here.

Test system: rodent carcinogenicity bioassays, tumor incidence
Assay: CCRIS carcinogenicity studies
Details: Dose: 0, Dose: 0
Method in brief: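 NCI-built, expert-reviewed records of carcinogenicity and related test outcomes (mutagenicity, tumor promotion/inhibition) compiled from published and report sources, historical span 1985-2011, not updated.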

S=c1[nH]c2ccccc2s1
carcinogen call (Species: MOUSE, Strain/Sex: B6C3F1/FEMALE, Route: GAVAGE, 375, 750 MG/KG IN CORN OIL 5D/WK FOR 103 WK (STUDY DURATION: 104 WK), 375, 750 MG/KG IN CORN OIL 5D/WK FOR 103 WK (STUDY DURATION: 104 WK), Tumor Site: Type of Lesion: LIVER: HEPATOCELLULAR ADENOMA OR CARCINOMA): equivocal | carcinogen call (Species: MOUSE, Strain/Sex: B6C3F1/MALE, Route: GAVAGE, 375, 750 MG/KG IN CORN OIL 5D/WK FOR 103 WK (STUDY DURATION: 104 WK), 375, 750 MG/KG IN CORN OIL 5D/WK FOR 103 WK (STUDY DURATION: 104 WK)): inactive; negative | carcinogen call (Species: RAT, Strain/Sex: F344/FEMALE, Route: GAVAGE, 188, 375 MG/KG IN CORN OIL 5D/WK FOR 103 WK (STUDY DURATION: 105 WK), 188, 375 MG/KG IN CORN OIL 5D/WK FOR 103 WK (STUDY DURATION: 105 WK), Tumor Site: Type of Lesion: PITUITARY GLAND: ADENOMA, PITUITARY GLAND: ADENOMA OR ADENOCARCINOMA, ADRENAL GLAND: PHEOCHROMOCYTOMA, Tumor Site: Type of Lesion: PITUITARY GLAND: ADENOMA, PITUITARY GLAND: ADENOMA OR ADENOCARCINOMA, ADRENAL GLAND: PHEOCHROMOCYTOMA): active; positive | carcinogen call (Species: RAT, Strain/Sex: F344/MALE, Route: GAVAGE, 375, 750 MG/KG IN CORN OIL 5D/WK FOR 103 WK (STUDY DURATION: 105 WK), 375, 750 MG/KG IN CORN OIL 5D/WK FOR 103 WK (STUDY DURATION: 105 WK), Tumor Site: Type of Lesion: HEMATOPOIETIC SYSTEM: MONONUCLEAR CELL LEUKEMIA, PANCREAS: ACINAR CELL ADENOMA): active; positive

CC(O)CN(N=O)C(N)=O (stereo not given)
carcinogen call (Species: HAMSTER, Strain/Sex: SYRIAN/FEMALE, Route: GAVAGE, 16 MG/ML ((0.2 ML OF A SOLUTION IN ETHYL ACETATE/CORN OIL (1:2)) 1/WK FOR 24 WK (STUDY DURATION: LIFE SPAN), Tumor Site: Type of Lesion: LIVER: HEMANGIOSARCOMA, SPLEEN: HEMANGIOSARCOMA, FORESTOMACH: SQUAMOUS CELL CARCINOMA OR PAPILLOMA, Tumor Site: Type of Lesion: LIVER: HEMANGIOSARCOMA, SPLEEN: HEMANGIOSARCOMA, FORESTOMACH: SQUAMOUS CELL CARCINOMA OR PAPILLOMA): active; positive | carcinogen call (Species: RAT, Strain/Sex: F344/FEMALE, Route: GAVAGE, 8 MG/ML (TOTAL DOSE 0; 0.4 MMOL) IN 2 ML ETHYL ACETATE AND CORN OIL (1:2) 2/WK FOR 18 WK (STUDY DURATION: LIFETIME), 8 MG/ML (TOTAL DOSE 0; 0.4 MMOL) IN 2 ML ETHYL ACETATE AND CORN OIL (1:2) 2/WK FOR 18 WK (STUDY DURATION: LIFETIME), Tumor Site: Type of Lesion: THYMUS: LYMPHOMA): active; positive | carcinogen call (Species: RAT, Strain/Sex: F344/FEMALE, Route: GAVAGE, 8 MG/ML IN 0.2 ML ETHYL ACETATE AND CORN OIL 2/WK FOR 18 WK (STUDY DURATION: LIFESPAN), Tumor Site: Type of Lesion: THYMUS: TUMOR): active; positive | carcinogen call (Species: RAT, Strain/Sex: F344/FEMALE, Route: INTRAVESICULAR, 3.2 MG 2/WK FOR 30 WK (STUDY DURATION: LIFETIME), Tumor Site: Type of Lesion: BLADDER: TUMOR): active; positive | carcinogen call (Species: RAT, Strain/Sex: F344/MALE, Route: GAVAGE, 8 MG/ML (TOTAL DOSE 0; 0.4 MMOL) IN 2 ML ETHYL ACETATE AND CORN OIL (1:2) 2/WK FOR 18 WK (STUDY DURATION: LIFETIME), 8 MG/ML (TOTAL DOSE 0; 0.4 MMOL) IN 2 ML ETHYL ACETATE AND CORN OIL (1:2) 2/WK FOR 18 WK (STUDY DURATION: LIFETIME), Tumor Site: Type of Lesion: THYMUS: LYMPHOMA): active; positive | carcinogen call (Species: RAT, Strain/Sex: F344/MALE, Route: GAVAGE, 8 MG/ML IN 0.2 ML ETHYL ACETATE AND CORN OIL 2/WK FOR 18 WK (STUDY DURATION: LIFESPAN), Tumor Site: Type of Lesion: THYMUS: TUMOR): active; positive

N#CS
carcinogen call (Species: RAT, Strain/Sex: F344/FEMALE, Route: ORAL, 0.32% IN DRINKING WATER 5 D/WK FOR 112 WK (STUDY DURATION: 130 WK)): inactive; negative | carcinogen call (Species: RAT, Strain/Sex: F344/MALE, Route: ORAL, 0.32% IN DRINKING WATER 5 D/WK FOR 112 WK (STUDY DURATION: 130 WK)): inactive; negative

Brc1c2ccccc2cc2c1ccc1ccccc12
carcinogen call (Species: MOUSE, Strain/Sex: B6C3F1/MALE, Route: INTRAPERITONEAL, 1600 NMOL (TOTAL DOSE) ADMINISTERED IN DOSES OF 1/7 WITHIN 24 HR OF BIRTH, 2/7 AT 8 DAYS OF AGE AND 4/7 AT 15 DAYS OF, Tumor Site: Type of Lesion: LIVER: ADENOMA, CARCINOMA): active; positive

C=COc1ccc([N+](=O)[O-])cc1
carcinogen call (Species: MOUSE, Strain/Sex: B6C3F1/MALE, Route: INTRAPERITONEAL, 60, 300 NMOL/G BW IN 10 µL TRIOCTANOIN ONCE (STUDY DURATION: 10 MO), 60, 300 NMOL/G BW IN 10 µL TRIOCTANOIN ONCE (STUDY DURATION: 10 MO), Tumor Site: Type of Lesion: LIVER: HEPATOMA): active; positive

O=C1c2ccccc2-c2ccc3c4c(ccc1c24)-c1ccccc1C3=O
carcinogen call (Species: MOUSE, Strain/Sex: B6C3F1/FEMALE, Route: ORAL, 12500, 25000 PPM IN DIET, 12500, 25000 PPM IN DIET): inactive; negative | carcinogen call (Species: MOUSE, Strain/Sex: B6C3F1/MALE, Route: ORAL, 25000, 50000 PPM IN DIET, 25000, 50000 PPM IN DIET, Tumor Site: Type of Lesion: LYMPHATIC SYSTEM: LYMPHOMA, LIVER: HEPATOCELLULAR CARCINOMA): active; positive | carcinogen call (Species: RAT, Strain/Sex: F344/FEMALE, Route: ORAL, 3500, 7000 PPM IN DIET, 3500, 7000 PPM IN DIET): inactive; negative | carcinogen call (Species: RAT, Strain/Sex: F344/MALE, Route: ORAL, 3500, 7000 PPM IN DIET, 3500, 7000 PPM IN DIET): inactive; negative

CC(=O)O[C@@H]1[C@@H](O)[C@H]2O[C@@H]3C=C(C)C(=O)[C@@H](O)[C@]3(CO)[C@]1(C)[C@]21CO1
carcinogen call (Species: MOUSE, Strain/Sex: BDF1/FEMALE, Route: GAVAGE, 3.5 MG/KG 1/4 WK FOR 1 YR (STUDY DURATION: 2 YR)): inactive; negative | carcinogen call (Species: MOUSE, Strain/Sex: BDF1/FEMALE, Route: GAVAGE, 3.5 MG/KG 1/8 WK FOR 1 YR (STUDY DURATION: 2 YR)): inactive; negative
